In PMC10629583, “Specific inhibition of an anticancer target, polo-like kinase 1, by allosterically dismantling its mechanism of substrate recognition” (Proceedings of the National Academy of Sciences of the …, 2023):
“Also recorded” adds a separate entry of the source. Like-named read-outs stand apart in the source and are kept apart here. Where no end group is shown, it is not given here. [ ]: non-standard residue; d: D form. pT = C[C@@H](OP(=O)(O)O)[C@H](N)C(=O)O

Columns and labels:
[1] = Conversion of Allopole to Allopole-A in buffers ± GSH (LC-MS); type: physicochemical; settings: 100 µM Allopole, room temperature, 1 h
Experimental: High-performance liquid chromatography (HPLC)/high-resolution mass spectrometry was used to determine the products derived from investigational drugs incubated under various conditions by measuring their exact masses. Thereafter, 20 μL aliquots of several drug preparations in either DMSO or aqueous reaction solutions were diluted 2:1 in ethanol, followed by centrifugation at 15,000 × g for 5 min. The supernatant was then injected on a Thermo Vanquish liquid chromatograph coupled to a Thermo Q Exactive Orbitrap mass spectrometer (Thermo Fisher Scientific). The conditions for the analysis are listed as follows.
The analytes were identified using the Dmass between the predicted and measured exact monoisotopic mass for the protonated molecular ions applied to the empirical formula algorithm in the Qual Browser application of the Xcalibur software (Themo Scientific). Selected ions from the base peak chromatogram were extracted for integration of peak areas. The relative amounts of each analyte to the sum total were calculated to estimate conversion of and prodrug under the specific conditions to breakdown products.
Table S2. Conversion of Allopole to Allopole-A under various buffer conditions, room
Buffers* Compounds detected
Allopole-A Allopole-A (-S) Allopole (-Cl) Allopole
* Buffer #1: 20 mM Tris (pH 8.0), 50 mM NaCl, 1 mM EDTA, 1% DMSO
Buffer #2: 1 x PBS (pH 7.4), 1 mM EDTA, 1% DMSO
Buffer #3: 20 mM HEPES (pH 7.0), 50 mM NaCl, 1 mM EDTA, 1% DMSO
Samples were prepared by incubating 100 µM of Allopole in the indicated buffer conditions in the
absence or presence of 5 mM GSH for 1 h at room temperature. Note that in the absence of GSH,

L363 cells [2] = system: L363 cells; parameters: method as in Park, J.E., et al. (1); settings: MTS, 48 h treatment, ref Park, J.E., et al. (1), cited from earlier work
[3] = Solubility in PBS (imaging of insoluble particles, dynamic light scattering); type: physicochemical; settings: PBS buffer (pH 7.4)
Experimental: All samples were analyzed after adjusting the concentration to 100 μM solution in the PBS buffer (pH 7.4) containing 1% DMSO. The measurements were carried out at 25 °C using the DynaPro NanoStar system (Wyatt Technology). The intensity of the scattered light was measured as a function of time, and the resulting data were used to calculate the size and distribution of the particles in the sample. Collected data were analyzed using the DYNAMICS software to calculate the mean size and polydispersity index of the particles in the sample. At least three repeat measurements were performed to ensure that the results were accurate and reproducible.
Fig. S1. Solubility and activity of Allopole and its related compounds. (A) Images showing insoluble
particles of 200 µM of the indicated compounds dissolved in the PBS buffer. The aggregates of […]

Plk3 PBD (PBD3) = target: T1, Plk3 PBD (PBD3) (Homo sapiens, UniProt Q9H4B4); test: FP-based inhibition assay, PBD3; type: binding; settings: bacterially expressed purified PBD, FITC-ligand 15 nM, PBD at EC85
T1 construct: MBP-PBD3-His (335–646) (pKM3359) and its A612F (pKM7981); His (C); made in house; host or cells: bacteria (E. coli)
T1 sequence (Q9H4B4 335-646): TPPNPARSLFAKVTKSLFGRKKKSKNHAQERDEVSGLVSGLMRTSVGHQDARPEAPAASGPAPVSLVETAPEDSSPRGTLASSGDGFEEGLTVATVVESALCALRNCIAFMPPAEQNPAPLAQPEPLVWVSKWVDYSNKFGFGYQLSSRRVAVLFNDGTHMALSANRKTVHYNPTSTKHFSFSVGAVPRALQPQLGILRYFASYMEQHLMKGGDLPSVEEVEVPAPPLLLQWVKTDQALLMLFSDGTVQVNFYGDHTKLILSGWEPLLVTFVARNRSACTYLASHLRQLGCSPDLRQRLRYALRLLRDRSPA
Experimental: FP assays were carried out essentially as described previously ([35], [36]). FITC-conjugated ligands (15 nM) were mixed with PBDs at their EC85 concentrations. All the samples were analyzed approximately 30 min after reaction in a 384-well format using the SpectraMax Paradigm multimode microplate detection platform (Molecular Devices). Data were analyzed after carrying out at least three independent experiments using GraphPad Prism software version 8.

full-length Plk1 [4] = target: T2, full-length Plk1 (Homo sapiens, UniProt P53350); settings: total lysates from HEK293A cells expressing full-length Plk1; ref Park, J.E., et al. (1); read-out: Anti-Plk1 (full length) ELISA (IC50) Mean ± SEM; cited from earlier work
T2 construct: expressed in transfected cells; host or cells: HEK293A cells infected with adenovirus; total lysate
T2 sequence (P53350 whole entry): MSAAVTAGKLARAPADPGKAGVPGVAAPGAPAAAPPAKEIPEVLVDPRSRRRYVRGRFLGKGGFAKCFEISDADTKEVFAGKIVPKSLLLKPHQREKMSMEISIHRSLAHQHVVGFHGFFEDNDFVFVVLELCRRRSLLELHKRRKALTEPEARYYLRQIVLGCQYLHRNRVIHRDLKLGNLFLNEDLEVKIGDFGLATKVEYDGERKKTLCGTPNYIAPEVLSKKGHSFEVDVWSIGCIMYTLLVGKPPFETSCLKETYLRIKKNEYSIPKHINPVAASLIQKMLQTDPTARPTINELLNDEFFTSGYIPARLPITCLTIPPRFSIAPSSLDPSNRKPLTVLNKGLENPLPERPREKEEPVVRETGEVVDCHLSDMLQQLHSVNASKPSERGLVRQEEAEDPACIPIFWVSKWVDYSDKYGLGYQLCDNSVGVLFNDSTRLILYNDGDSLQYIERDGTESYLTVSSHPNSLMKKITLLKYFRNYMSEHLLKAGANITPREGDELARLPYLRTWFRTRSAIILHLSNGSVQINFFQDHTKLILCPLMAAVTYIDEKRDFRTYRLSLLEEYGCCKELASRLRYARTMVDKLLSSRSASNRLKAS

Plk2 PBD (PBD2) = target: T3, Plk2 PBD (PBD2) (Homo sapiens, UniProt Q9NYY3); test: FP-based inhibition assay, PBD2; type: binding; settings: bacterially expressed purified PBD, FITC-ligand 15 nM, PBD at EC85
T3 construct: Purification of PBD2-His (355–685) (pKM3358) and its S652F mutant (pKM7980); His (C); made in house; host or cells: bacteria (E. coli)
T3 sequence (Q9NYY3 355-685): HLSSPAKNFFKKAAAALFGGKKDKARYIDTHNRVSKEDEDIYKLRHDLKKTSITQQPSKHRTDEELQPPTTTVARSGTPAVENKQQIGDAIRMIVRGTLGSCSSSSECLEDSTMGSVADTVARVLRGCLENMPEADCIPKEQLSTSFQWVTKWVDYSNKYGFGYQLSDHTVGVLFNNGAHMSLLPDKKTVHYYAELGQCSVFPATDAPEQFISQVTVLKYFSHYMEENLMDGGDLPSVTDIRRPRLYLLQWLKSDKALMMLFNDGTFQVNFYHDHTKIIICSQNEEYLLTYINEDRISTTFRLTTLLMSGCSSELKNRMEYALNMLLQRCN
Experimental: (§1) FP assays were carried out essentially as described previously ([35], [36]). […] All the samples were analyzed approximately 30 min after reaction in a 384-well format using the SpectraMax Paradigm multimode microplate detection platform (Molecular Devices). Data were analyzed after carrying out at least three independent experiments using GraphPad Prism software version 8.

Plk1 PBD (PBD1) = target: T4, Plk1 PBD (PBD1) (Homo sapiens, UniProt P53350); test: FP-based inhibition assay, PBD1; type: binding; settings: FP, bacterially expressed purified PBD, FITC-ligand 15 nM, PBD at EC85; read-out: PBD1 IC50 ± SD
T4 construct: constructs expressing PBD1 (residues 345–603) WT (pKM7650); His; TEV site (N); made in house; host or cells: bacteria (E. coli)
T4 sequence (P53350 345-603): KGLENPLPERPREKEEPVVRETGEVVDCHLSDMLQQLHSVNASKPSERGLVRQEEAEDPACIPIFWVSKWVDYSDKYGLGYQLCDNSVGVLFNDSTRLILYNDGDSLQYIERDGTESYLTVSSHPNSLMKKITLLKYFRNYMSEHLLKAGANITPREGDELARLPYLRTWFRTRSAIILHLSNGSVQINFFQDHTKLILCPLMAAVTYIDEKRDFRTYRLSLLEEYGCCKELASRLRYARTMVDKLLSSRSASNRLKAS
Experimental: as §1

full-length Plk1 [5] = target: T2, full-length Plk1; test: ELISA-based PBD1-binding inhibition assay; settings: total lysates from HEK293A cells expressing full-length Plk1; biotinylated PBIP1 p-T78 peptide; read-out: Anti-Plk1 (full length) ELISA (IC50) Mean ± SEM
L363 cells [6] = test: MTS cell viability assay, L363 cells; type: cell-based; settings: 48 h treatment, read-out: Cell efficacy (GI50) Mean ± SD
human His-Plk1 = target: T5, human His-Plk1 (Homo sapiens, UniProt P53350); test: In vitro Plk1 kinase assay (casein, 32P); type: biochemical; settings: casein substrate
T5 construct: His (N); purchased Sino Biological; host or cells: Sf9
T5 sequence (P53350 whole entry): as the sequence (P53350 whole entry) above
Experimental: Kinase reactions were carried out in two steps. First, Sf9-purified 0.2 µg of human His-Plk1 (Sino Biological) was preincubated in a kinase cocktail [50 mM Tris-Cl (pH 7.5), 10 mM MgCl2, 2 mM dithiothreitol, 2 mM EGTA, and 27 mM p-nitrophenylphosphate] in the presence of either Allopole-A or p-13mer PBIP peptide for 20 min at 25 °C. The samples were then added with 1 µg of dephosphorylated casein (Sigma) and 1.25 µM of ATP (1.25 µCi of [γ^32P] ATP, 1Ci = 37 GBq) and reacted for additional 30 min at 30 °C. The reactions were terminated by the addition of 5× Laemmli SDS sample buffer, separated by 10% SDS-PAGE, and analyzed by autoradiography. To quantify the γ^32P signals, appropriate bands were excised from dried SDS-PAGE gels and analyzed by a liquid scintillation counter (Beckman model LS 6500).

[7] = Buffer #1 (20 mM Tris pH 8.0), no GSH
[8] = Buffer #2 (1 x PBS pH 7.4), no GSH
[9] = Buffer #3 (20 mM HEPES pH 7.0), no GSH

Compound: Cn1cnc([N+](=O)[O-])c1Sc1nnc2n(CC3CC3)c(=O)c3sccc3n12 [Allopole (-Cl)]
- Compounds detected [1, 7]: 0.0 µmol/L
- Compounds detected, % of total [1, 7]: 0.0%
- Compounds detected, pk area [1, 7]: 4.85E+04
- Compounds detected ([1]; Buffer #1 + 5 mM GSH): 0.5 µmol/L
- Compounds detected, % of total ([1]; Buffer #1 + 5 mM GSH): 0.5%
- Compounds detected, pk area ([1]; Buffer #1 + 5 mM GSH): 6.89E+06
- Compounds detected [1, 8]: 0.0 µmol/L
- Compounds detected, % of total [1, 8]: 0.0%
- Compounds detected, pk area [1, 8]: 2.42E+04
- Compounds detected ([1]; Buffer #2 + 5 mM GSH): 0.3 µmol/L
- Compounds detected, % of total ([1]; Buffer #2 + 5 mM GSH): 0.3%
- Compounds detected, pk area ([1]; Buffer #2 + 5 mM GSH): 2.57E+06
- Compounds detected [1, 9]: 0.0 µmol/L
- Compounds detected, % of total [1, 9]: 0.0%
- Compounds detected, pk area [1, 9]: 0.00E+00
- Compounds detected ([1]; Buffer #3 + 5 mM GSH): 0.4 µmol/L
- Compounds detected, % of total ([1]; Buffer #3 + 5 mM GSH): 0.4%
- Compounds detected, pk area ([1]; Buffer #3 + 5 mM GSH): 1.11E+06

Compound: CCCn1c(=O)c2sc(C)cc2n2c(=S)[nH]nc12 [compound 3]
- Cell efficacy (GI50) Mean ± SD (L363 cells [2]): failed to induce any significant antiproliferation effect; also recorded: N. S
- Solubility (in words) [3]: lower-than-acceptable solubility
- PBD3 IC50 ± SD (Plk3 PBD (PBD3)): N. S.
- IC50 (full-length Plk1 [4]): 2150 nM
- PBD2 IC50 ± SD (Plk2 PBD (PBD2)): N. S.
- IC50 (Plk1 PBD (PBD1)): 10.2 nM

Compound: CCCn1c(=O)c2sc(C)cc2n2c(Sc3c([N+](=O)[O-])ncn3C)nnc12 [compound 4]
- GI50 (L363 cells [2]; read-out: Cell efficacy (GI50) Mean ± SD): 4.88 ± 0.1 µM
- Solubility (in words) [3]: lower-than-acceptable solubility; also recorded: low solubility
- IC50 (full-length Plk1 [4]): > 50000 nM

Compound: CCCn1c(=O)c2oc3ccccc3c2n2c(Sc3c([N+](=O)[O-])ncn3C)nnc12 [compound 8]
- IC50 (full-length Plk1 [5]): > 50 µM
- GI50 (L363 cells [6]): 8.31 ± 0.56 µM

Compound: CCCn1c(=O)c2oc3cccc(F)c3c2n2c(Sc3c([N+](=O)[O-])ncn3C)nnc12 [compound 10]
- IC50 (full-length Plk1 [5]): > 50 µM
- GI50 (L363 cells [6]): 7.53 ± 0.43 µM

Compound: CCCn1c(=O)c2sccc2n2c(Sc3c([N+](=O)[O-])ncn3C)nnc12 [compound 12]
- Solubility (in words) [3]: moderately; also recorded: moderate
- IC50 (full-length Plk1 [5]): > 50 µM
- GI50 (L363 cells [6]): 8.4 ± 0.74 µM

Compound: CCCn1c(=O)c2sc(Cl)cc2n2c(Sc3c([N+](=O)[O-])ncn3C)nnc12 [compound 14]
- IC50 (full-length Plk1 [5]): > 50 µM
- GI50 (L363 cells [6]): 6.04 ± 0.17 µM

Compound: CCCn1c(=O)c2sc(C(C)(C)C)cc2n2c(Sc3c([N+](=O)[O-])ncn3C)nnc12 [compound 16]
- Solubility (in words) [3]: moderately; also recorded: moderate
- IC50 (full-length Plk1 [5]): > 50 µM
- GI50 (L363 cells [6]): 4.19 ± 0.15 µM

Compound: CCCn1c(=O)c2sc3ccccc3c2n2c(Sc3c([N+](=O)[O-])ncn3C)nnc12 [compound 18]
- IC50 (full-length Plk1 [5]): > 50 µM
- GI50 (L363 cells [6]): 7.05 ± 0.27 µM

Compound: CETFDPPLHSpTAI (CETFDPPLHS[pT]AI) [p-13mer, phospho-13mer ligand derived from the PBIP1 p-T78 motif, reference compound]
- Effect on His-Plk1 kinase activity in vitro (in words) (human His-Plk1): increased it
